Usually Emax stands for the size of the effect at its maximum, as opposed to the concentration needed. The term DC50 denotes the concentration at which degradation of the target reaches its halfway point.

Experiment [1] addresses T1, RET(KD: 658-1114 G810R) (Homo sapiens, UniProt P07949, G810R).
T1 construct: 658-1114; expressed in transfected cells; host or cells: 293T.165 (293T cells, generated in-house)
T1 sequence (P07949 658-1114 G810R): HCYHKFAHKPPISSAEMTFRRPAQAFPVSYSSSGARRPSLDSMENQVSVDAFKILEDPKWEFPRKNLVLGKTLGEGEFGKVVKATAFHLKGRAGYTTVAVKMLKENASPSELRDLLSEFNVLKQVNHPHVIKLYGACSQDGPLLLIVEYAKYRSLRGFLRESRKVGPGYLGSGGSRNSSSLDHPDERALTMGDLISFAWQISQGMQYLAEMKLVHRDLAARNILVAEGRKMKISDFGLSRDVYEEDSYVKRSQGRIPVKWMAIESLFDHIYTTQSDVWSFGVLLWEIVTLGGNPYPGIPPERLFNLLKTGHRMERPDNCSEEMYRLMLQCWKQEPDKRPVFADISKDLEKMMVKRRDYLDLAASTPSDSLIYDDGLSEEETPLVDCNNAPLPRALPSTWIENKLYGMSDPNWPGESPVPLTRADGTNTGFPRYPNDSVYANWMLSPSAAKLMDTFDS
Description: HiBiT-Degradation, RET G810R degradation assay (Nano-Glo HiBiT Lytic), 293T.165 cells. It counts as cell-based. The following applies: for Emax / DC50: 6.0 hours; for Emax: % remaining protein, read-out: 293T.165 RET(KD: 658-1114 G810R) 6.0 hours (Emax); for DC50: read-out: 293T.165 RET(KD: 658-1114 G810R) 6.0 hours (DC50). A digest of the protocol:
(§1)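 Cells were plated and dosed with an 11-point half-log series (highest 10 μM) in duplicate. After 6 hours they were lysed with HiBiT lytic detection reagent and luminescence measured. DC50 and percent remaining protein (Emax) came from the dose-response curves.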
On the technique in general: With HiBiT, luminescence reflects the tagged protein that the partner subunit can reach.

The target of experiment [2] is T2, RET (658-1114) (Homo sapiens, UniProt P07949).
T2 construct: 658-1114; expressed in transfected cells; host or cells: 293T.144 (293T cells, generated in-house)
T2 sequence (P07949 658-1114): T1 sequence (P07949 658-1114 G810R) with R153G
Put plainly: HiBiT-Degradation, RET wild-type degradation assay (Nano-Glo HiBiT Lytic), 293T.144 cells. The following applies: for Emax / DC50: 6.0 hours; for Emax: read-out: 293T.144 RET (658-1114) 6.0 hours (Emax); for DC50: read-out: 293T.144 RET (658-1114) 6.0 hours (DC50). It counts as cell-based. A digest of the protocol: as §1

Setting [3] is: half-maximal degradation concentration.

Numbering of substitutions follows the chain as printed. Structures can show the parent of a compound that is named as a salt. Where two headings read alike, the source gives them in different places. Where only a bound is given, the exact number is not on record here.

Consider `CCC1(C(=O)NC(C)C)CCN(c2ccc(-c3nc(-c4cnn(C5CCN(C(=O)CC6(O)CCN(c7ccc(NC8CCC(=O)NC8=O)cc7F)CC6)CC5)c4)cn4ncc(C#N)c34)cc2)CC1` (stereo not drawn) [Compound 121, 1-(4-(3-Cyano-6-(1-(1-(2-(1-(4-((2,6-dioxopiperidin-3-yl)amino)-2-fluorophenyl)-4-hydroxypiperidin-4-yl)acetyl)piperidin-4-yl)-1H-pyrazol-4-yl)pyrazolo[1,5-a]pyrazin-4-yl)phenyl)-4-ethyl-N-isopropylpiperidine-4-carboxamide], for which, in experiment [1], the “293T.165 RET(KD: 658-1114 G810R) 6.0 hours (IP) [nM]” value is given as “++++ (<50 nM = ++++)”. In addition, the Emax in experiment [1] and in experiment [2] (% remaining protein) was below 30% throughout. Also, the 50% degradation concentration (DC50) in experiment [1] (setting [3]) and in experiment [2] (setting [3]) was below 50 nM each time. The “293T.144 RET (658-1114) 6.0 hours (IP) [nM]” value (from here on “293T.144 RET”) in experiment [2] is listed as “++++ (<50 nM = ++++)”.

`CCC1(C(=O)NC2CCC2)CCN(c2ccc(-c3nc(-c4cnn([C@H]5CC[C@H](N6CCC(c7ccc(NC8CCC(=O)NC8=O)cc7Cl)CC6)CC5)c4)cn4ncc(C#N)c34)cn2)CC1` (single isomer, unassigned) [Compound 133, 1-[5-[6-[1-[4-[4-[2-chloro-4-[(2,6-dioxo-3-piperidyl)amino]phenyl]-1-piperidyl]cyclohexyl]pyrazol-4-yl]-3-cyano-pyrazolo[1,5-a]pyrazin-4-yl]-2-pyridyl]-N-cyclobutyl-4-ethyl-piperidine-4-carboxamide]: the Emax in experiment [1] and in experiment [2] (% remaining protein) was below 30% each time. Moreover, the DC50 in experiment [1] (setting [3]) and in experiment [2] (setting [3]) was below 50 nM throughout.

Consider `CCC1(NC(=O)C(C)C)CCN(c2ccc(-c3cc(-c4cnn(C5CCN(C(=O)CN6CCC(c7ccc(NC8CCC(=O)NC8=O)cc7F)CC6)CC5)c4)cn4ncc(C#N)c34)cn2)CC1` (stereo not drawn) [Compound 55, N-[1-[5-[3-cyano-6-[1-[1-[2-[4-[4-[(2,6-dioxo-3-piperidyl)amino]-2-fluoro-phenyl]-1-piperidyl]acetyl]-4-piperidyl]pyrazol-4-yl]pyrazolo[1,5-a]pyridin-4-yl]-2-pyridyl]-4-ethyl-4-piperidyl]-2-methyl-propanamide], for which the maximal response (Emax) in experiment [1] was below 50%. In addition, the DC50 in experiment [1] (setting [3]) was below 50 nM. Further, in experiment [1] (HiBiT-Degradation), the “293T.165 RET(KD: 658-1114 G810R) 6.0 hours (Emax)” value was “+++ (<50% = +++)”, the “293T.165 RET(KD: 658-1114 G810R) 6.0 hours (IP) [nM]” value is “++++ (< 50 nM = ++++)” and the DC50 was below 50 nM. In addition, in experiment [2] (HiBiT-Degradation), the “293T.144 RET” value is on record as “++++ (< 50 nM = ++++)”, the DC50 was below 50 nM and the Emax was below 30%.

On to `Cn1nc(N2CCC(=O)NC2=O)c2ccc(N3CCN([C@H]4CC[C@H](n5cc(-c6cn7ncc(C#N)c7c(-c7ccc(N8C[C@H]9COC[C@@H](C8)N9Cc8ccccn8)nc7)n6)cn5)CC4)CC3)c(F)c21` [Compound 208, 6-[1-[4-[4-[3-(2,4-dioxohexahydropyrimidin-1-yl)-7-fluoro-1-methyl-indazol-6-yl]piperazin-1-yl]cyclohexyl]pyrazol-4-yl]-4-[6-[(1S,5R)-9-(2-pyridylmethyl)-3-oxa-7,9-diazabicyclo[3.3.1]nonan-7-yl]-3-pyridyl]pyrazolo[1,5-a]pyrazine-3-carbonitrile], for which the “293T.165 RET(KD: 658-1114 G810R) 6.0 hours (IP) [nM]” value in experiment [1] is “++++ (<50 nM = ++++)”. Further, the maximal effect (Emax) in experiment [1] and in experiment [2] (% remaining protein) was below 30% in each case. Moreover, the results for the half-maximal degradation concentration (DC50) in experiment [1] (setting [3]) and in experiment [2] (setting [3]) were below 100 nM and below 50 nM, respectively. Besides, the “293T.144 RET” value in experiment [2] is reported as “++++ (<50 nM = ++++)”.

For the compound `N#Cc1cnn2cc(-c3cnn(C4CCN(C(=O)CC5(O)CCN(c6ccc(NC7CCC(=O)NC7=O)cc6F)CC5)CC4)c3)nc(-c3ccc(N4CCC(c5ncccn5)CC4)nc3)c12` (stereo not drawn) [Compound 36, 6-[1-[1-[2-[1-[4-[(2,6-dioxo-3-piperidyl)amino]-2-fluoro-phenyl]-4-hydroxy-4-piperidyl]acetyl]-4-piperidyl]pyrazol-4-yl]-4-[6-(4-pyrimidin-2-yl-1-piperidyl)-3-pyridyl]pyrazolo[1,5-a]pyrazine-3-carbonitrile], the Emax in experiment [1] was below 30%. For the same compound, the DC50 in experiment [1] (setting [3]) is below 50 nM. For the same compound, in experiment [1] (HiBiT-Degradation), the “293T.165 RET(KD: 658-1114 G810R) 6.0 hours (Emax)” value was “++++ (< 30% = ++++)”, the “293T.165 RET(KD: 658-1114 G810R) 6.0 hours (IP) [nM]” value is “++++ (< 50 nM = ++++)” and the DC50 was below 50 nM. In addition, in experiment [2] (HiBiT-Degradation), the “293T.144 RET” value is “++++ (< 50 nM = ++++)”, the DC50 is below 50 nM and the Emax was below 30%.

As for `CCC1(C(=O)NC2CCOCC2)CCN(c2ccc(-c3cc(-c4cnn([C@H]5CC[C@H](CCN6CCC(c7ccc(NC8CCC(=O)NC8=O)cc7F)CC6)CC5)c4)cn4ncc(C#N)c34)cn2)CC1` (stereo partly drawn) [Compound 40, 1-(5-(3-Cyano-6-(1-((trans)-4-(2-(4-(4-((2,6-dioxopiperidin-3-yl)amino)-2-fluorophenyl)piperidin-1-yl)ethyl)cyclohexyl)-1H-pyrazol-4-yl)pyrazolo[1,5-a]pyridin-4-yl)pyridin-2-yl)-4-ethyl-N-(tetrahydro-2H-pyran-4-yl)piperidine-4-carboxamide], in experiment [1], the maximum response (Emax) was below 30%. Also, the DC50 in experiment [1] (setting [3]) was below 50 nM. Further, in experiment [1] (HiBiT-Degradation), the “293T.165 RET(KD: 658-1114 G810R) 6.0 hours (Emax)” value is “++++ (< 30% = ++++)”, the “293T.165 RET(KD: 658-1114 G810R) 6.0 hours (IP) [nM]” value was “++++ (< 50 nM = ++++)” and the DC50 is below 50 nM. In experiment [2] (HiBiT-Degradation), the “293T.144 RET” value is “++++ (< 50 nM = ++++)”, the half-maximal degradation concentration (DC50) was below 50 nM and the Emax was below 30%.

Take `CCC1(C(=O)NC(C)C)CCN(c2ccc(-c3nc(-c4cnn(C5CCN(C(=O)Cc6ccc(-c7ccc(NC8CCC(=O)NC8=O)cc7F)cc6)CC5)c4)cn4ncc(C#N)c34)cn2)CC1` (stereo not drawn) [Compound 89, 1-[5-[3-cyano-6-[1-[1-[2-[4-[4-[(2,6-dioxo-3-piperidyl)amino]-2-fluoro-phenyl]phenyl]acetyl]-4-piperidyl]pyrazol-4-yl]pyrazolo[1,5-a]pyrazin-4-yl]-2-pyridyl]-4-ethyl-N-isopropyl-piperidine-4-carboxamide]: in experiment [1], the “293T.165 RET(KD: 658-1114 G810R) 6.0 hours (IP) [nM]” value is “++++ (<50 nM = ++++)”. For the same compound, the Emax in experiment [1] is below 50%; in experiment [2] (% remaining protein), below 30%. Further, the values for the 50% degradation concentration (DC50) in experiment [1] (setting [3]) and in experiment [2] (setting [3]) were below 100 nM and below 50 nM, respectively. In addition, the “293T.144 RET” value in experiment [2] is given as “++++ (<50 nM = ++++)”.

As for `N#Cc1cnn2cc(-c3cnn(C4CCN(C(=O)CN5CCC(c6ccc(NC7CCC(=O)NC7=O)cc6)CC5)CC4)c3)cc(-c3ccc(N4CCN(C(=O)Cc5ccc(F)cn5)CC4)nc3)c12` (stereo not drawn) [Compound 15, 6-[1-[1-[2-[4-[4-[(2,6-dioxo-3-piperidyl)amino]phenyl]-1-piperidyl]acetyl]-4-piperidyl]pyrazol-4-yl]-4-[6-[4-[2-(5-fluoro-2-pyridyl)acetyl]piperazin-1-yl]-3-pyridyl]pyrazolo[1,5-a]pyridine-3-carbonitrile formic acid salt], the Emax in experiment [1] was below 30%. Moreover, the DC50 in experiment [1] (setting [3]) is below 100 nM. Further, in experiment [1] (HiBiT-Degradation), the “293T.165 RET(KD: 658-1114 G810R) 6.0 hours (Emax)” value was “++++ (< 30% = ++++)”, the “293T.165 RET(KD: 658-1114 G810R) 6.0 hours (IP) [nM]” value is “++++ (< 50 nM = ++++)” and the DC50 was below 100 nM. Also, in experiment [2] (HiBiT-Degradation), the “293T.144 RET” value is listed as “++++ (< 50 nM = ++++)”, the DC50 was below 50 nM and the Emax was below 30%.
